What all share (assay type): cell-based, human
Assay [1] relates to bioprinted breast cancer constructs (MCF7/HUVEC cancer node surrounded by NHMF, HUVEC, SPA stroma). Kind of assay: Construct viability after drug treatment by alamarBlue assay. Particulars: 10 μM compound for 3 days, followed by 100 μM compound for 24 hours; FIG. 14.
From the text: The stromal compartment of the constructs was comprised of 65% NHMF, 25% HUVEC, and 10% SPA (partially pre-differentiated). The cancer compartment of the constructs was comprised of 75% MCF7, 25% HUVEC. For each compartment, cells were mixed together at the indicated ratio and resuspended in Novogel® 3.0 at a concentration of 150 million cells/ml. Constructs were printed as 3 layered structures with a dimension of 3 mm×3 mm×0.75 mm. Immediately following bioprinting, constructs were stabilized via crosslinking After 2 minutes, the calcium crosslinking solution was aspirated and replaced with culture media. After 2 days in culture, constructs were treated overnight with enzyme dissolved in culture media to remove the Novogel® 3.0. Constructs were then incubated for up to 9 additional days. All compounds were acquired from Sigma-Aldrich and were dissolved in DMSO. Compounds were diluted to a final concentration of 10 μM or 100 μM in media. The final DMSO concentration was 0.1%, which was used for vehicle treatment. Constructs were assessed for metabolic activity by alamarBlue assay (Life Technologies, Carlsbad, Calif.) or CellTiter Glo assay (Promega, Madison, Wis.). Constructs were treated for 24 hours for labeled compound uptake studies, or for 4 days for assessment of metabolic activity.
The test system of assay [2] is bioprinted breast cancer tumor models (cancer and stromal compartments). Kind of assay: Apoptosis by TUNEL staining with CK8 and TE7 markers in bioprinted breast cancer tumor model. The settings on record: 100 μM cisplatin for 4 days; FIG. 22. An excerpt:
(§1) The breast cancer tumor models included a nodule of human breast cancer cells surrounded by a physiologically-relevant stromal layer, which included human adipocytes differentiated from human mesenchymal stem cells, human mammary fibroblasts, and human endothelial cells. The adipocytes were derived from mesenchymal stem cells which were isolated an exposed to an adipocyte differentiation signal prior to preparation of the bio-ink and bioprinting.
Referring to FIG. 22, bioprinted tissues were treated with vehicle (A-C) or 100 μM cisplatin (D-F) for 4 days. The first (A and D) and second (B and E) columns depict tissues assessed for apoptosis by TUNEL staining (green) and markers for cancer cells (CK8, red). The last ([…]) column depicts tissues assessed for apoptosis by TUNEL staining (green) and markers for fibroblasts (TE7, red).

In assay [3] the test system is breast cancer cells in two-dimensional cell culture and bioprinted breast cancer tumor models. Kind of assay: Tamoxifen drug response by ATP luciferase assay, two-dimensional breast cancer cell culture compared to bioprinted breast cancer tumor models. Particulars: 10 μM tamoxifen for 48 hours; FIG. 20.
From the text: as §1
The breast cancer tumor models were exposed to chemotherapy compounds in order to access drug response. Referring to FIG. 20, breast cancer cells grown in two-dimensional cell culture (A) and the bioprinted breast cancer tumor models (B) were treated with media alone, DMSO, or 10 μM tamoxifen for 48 hours and assessed for viability by ATP luciferase assay. For each graph, * indicates p<0.05 for treatment compared to control.

Here are results for three molecules from US20170023550A1, “ENGINEERED THREE-DIMENSIONAL BREAST TISSUE, ADIPOSE TISSUE, AND TUMOR DISEASE MODEL” (Organovo, Inc., priority 2014, published 2017).

For the molecule `N.N.[Cl][Pt][Cl]` [Cisplatin, cisplatin], the “construct viability relative to media or vehicle controls (alamarBlue)” value in assay [1] is “decreased construct viability”. Besides, in assay [2], the “apoptosis by TUNEL staining, stromal compartment vs cancer compartment” value is given as “induces greater apoptosis in the stromal compartment of bioprinted tissues than in the cancer compartment”.

For `CC(=O)O[C@H]1C(=O)[C@@]2(C)[C@H]([C@H](OC(=O)c3ccccc3)[C@]3(O)C[C@H](OC(=O)[C@H](O)[C@@H](NC(=O)c4ccccc4)c4ccccc4)C(C)=C1C3(C)C)[C@]1(OC(C)=O)CO[C@@H]1C[C@@H]2O` [paclitaxel], the “construct viability relative to media or vehicle controls (alamarBlue)” value in assay [1] is reported as “decreased construct viability”.

Consider `CC/C(=C(\c1ccccc1)c1ccc(OCCN(C)C)cc1)c1ccccc1` [tamoxifen], for which the “susceptibility to tamoxifen-induced toxicity, two-dimensional cancer cells vs three-dimensional bioprinted constructs (viability by ATP luciferase assay)” value in assay [3] was “more susceptible to tamoxifen-induced toxicity than cells incorporated into three-dimensional bioprinted constructs”.
